Where “and” joins values, the source holds several entries; their conditions need not be identical. Equal values may be shown once. Where a name gives a salt, the structure may show the parent alone.
What was measured:
[1] = molecular target: T1, EcaGST A3-3 (Equus caballus, UniProt M9ZT87); experiment: Inhibition of EcaGST A3-3 activity, GSH conjugation with CDNB; assay type: biochemical, Equus ferus caballus; details: for inhibition at 10 µM: read-out: Inhibition (%) of EcaGST A3-3; for IC50: 100 mM sodium phosphate pH 6.5, 30°C, read-out: IC50 EcaGST A3-3, substrate CDNB
Experimental: The final solvent concentration in the reaction system was kept at 5% (v/v) as a maximum.
(§1) The conjugation of GSH with the electrophilic substrate CDNB was used as a biochemical assay for general activity measurements. Screening of the US Drug library for inhibition was done in triplicates in 96-well plates in a Thermo Scientific Multiskan GO spectrophotometer. The conjugation activity at 30°C was monitored at 340 nm for 1 min in 0.1 M sodium phosphate buffer at pH 6.5 and 10 μM inhibitor concentration in a final volume of 300 μL. Initial concentrations of GSH and CDNB were 1 mM.
Assay conditions for inhibition measurements of enzyme activity with CDNB were the following: EcaGST A3-3 15 nM, initial concentrations of GSH and CDNB 1 mM, inhibitor concentrations varying from 0.029 μM to 15 μM, in 100 mM Na2HPO4/NaH2PO4 at pH 6.5.
The reactions were followed spectrophotometrically for 1 min at 30°C using a Shimadzu UV-2501 PC spectrophotometer (Shimadzu Inc.). All experiments included triplicate measurements in each data point.
The equation for competitive inhibition fitted by non-linear regression was v=Vmax[S]/KM(1+[I]/Ki)+[S] where [S] is the substrate concentrations and [I] is the inhibitor concentration.

[2] = molecular target: T1, EcaGST A3-3; experiment: Inhibition of EcaGST A3-3 steroid double-bond isomerase activity with Δ^5-AD; assay type: biochemical, Equus ferus caballus; details: for IC50 EcaGST A3-3, substrate Δ^5-AD: 0.1 mM Δ^5-AD, 25 mM sodium phosphate pH 8.0, 30°C
[3] = system: HsaGST P1-1; parameters: method as in PMID 23769903; details: 3.3 μM inhibitor, 1 mM GSH, 1 mM CDNB, pH 6.5, 30°C; cited from earlier work
[4] = system: HsaGST S1-1; parameters: method as in PMID 25603235; details: 1 mM GSH, 1 mM CDNB, pH 6.5, 30°C, cited from earlier work; for Inhibition (%) of HsaGST S1-1: 10 μM inhibitor
[5] = molecular target: T2, HsaGST M2-2 (Homo sapiens, UniProt P28161); experiment: Inhibition of HsaGST M2-2 CDNB activity; assay type: biochemical; details: 1 mM GSH, 1 mM CDNB, pH 6.5, 30°C; for IC50: CDNB activity, read-out: IC50 HsaGST M2-2
T2 construct: made in house
T2 sequence (P28161 1-218): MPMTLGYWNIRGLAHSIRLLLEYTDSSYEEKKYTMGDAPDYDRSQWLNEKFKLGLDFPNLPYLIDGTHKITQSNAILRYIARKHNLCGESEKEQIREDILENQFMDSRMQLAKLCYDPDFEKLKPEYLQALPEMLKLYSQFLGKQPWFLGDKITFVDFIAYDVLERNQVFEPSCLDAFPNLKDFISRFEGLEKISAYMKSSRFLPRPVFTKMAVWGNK
Experimental: (§2) EcaGST A3-3 [10], HsaGST A3-3 [12] and HsaGST M2-2 [13] were cloned, expressed and purified as described previously. Protein concentration was determined by means of the Bradford assay.
as §1
(§3) For understanding the effects of pharmacological interventions based on GST inhibitors, it is important to know the selectivity among the numerous GSTs. […] All values were determined with CDNB, which is a common substrate for all the enzymes.

[6] = molecular target: T3, HsaGST A3-3 (Homo sapiens, UniProt Q16772); experiment: Inhibition of HsaGST A3-3 CDNB activity; assay type: biochemical; details: 1 mM GSH, 1 mM CDNB, pH 6.5, 30°C; for IC50: CDNB activity
T3 construct: made in house
T3 sequence (Q16772 1-222): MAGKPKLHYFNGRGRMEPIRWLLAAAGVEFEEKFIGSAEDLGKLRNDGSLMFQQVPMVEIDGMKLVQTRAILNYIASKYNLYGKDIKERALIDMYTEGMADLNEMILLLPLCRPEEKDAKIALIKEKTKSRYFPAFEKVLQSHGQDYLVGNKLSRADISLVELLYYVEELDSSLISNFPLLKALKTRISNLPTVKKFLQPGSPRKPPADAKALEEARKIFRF
Experimental: as §2, §1, §3

[7] = 10 μM inhibitor, 1 mM GSH, 1 mM CDNB, sodium phosphate pH 6.5, 30°C

T1 sequence (M9ZT87 entry or part of it): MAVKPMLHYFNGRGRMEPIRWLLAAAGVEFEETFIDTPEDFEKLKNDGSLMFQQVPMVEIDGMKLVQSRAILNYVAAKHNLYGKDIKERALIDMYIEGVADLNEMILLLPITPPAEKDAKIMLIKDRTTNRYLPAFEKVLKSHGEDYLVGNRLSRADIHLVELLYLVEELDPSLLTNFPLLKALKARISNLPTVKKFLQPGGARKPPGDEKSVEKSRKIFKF

## CCN(CCCc1ccccc1)CCCc1ccccc1 [Alverine citrate]
[1]; [7]
  inhibition at 10 µM: 31 ± 17%

## NCC(=O)CCC(=O)O [Aminolevulinic acid hydrochloride]
[1]; [7]
  inhibition at 10 µM: 32 ± 11%

## O=C1c2c(O)cccc2Cc2cccc(O)c21 [Anthralin]
[1]; [7]
  inhibition at 10 µM: 96 ± 1.8%
[1]; 1 mM CDNB, 1 mM GSH
  IC50: 2100 ± 270 nM
[1]; dose-response curve, substrate CDNB, mean ± SD
  Hill coefficient, CDNB inhibition: 2.0±0.43
[2]
  IC50: 85 ± 4.8 nM
[2]; 1 mM GSH
  IC50 EcaGST A3-3, substrate Δ^5-AD: submicromolar range
[2]; Ki, EcaGST A3-3, substrate Δ^5-AD, Δ^5-AD varied, 1 mM GSH, 0.09 μM inhibitor
  Ki: 90 nM and 93 nM
[2]; dose-response curve, substrate Δ^5-AD, mean ± SD
  Hill coefficient, Δ^5-AD inhibition: 1.9±0.19
[2]; ratio of IC50 values CDNB vs Δ^5-AD, EcaGST A3-3
  Times more potent with Δ^5-AD as substrate than with CDNB: approximately 25 times
[2]; Δ^5-AD varied, 1 mM GSH
  Inhibition modality, substrate Δ^5-AD: Competitive
[3]
  Inhibition (%) of HsaGST P1-1: 22%
[4]
  Inhibition (%) of HsaGST S1-1: 84%
[4]; CDNB activity
  IC50: 24000 nM
[5]; 10 μM inhibitor, read-out: Inhibition (%) of HsaGST M2-2
  inhibition at 10 µM: 80%
[6]
  IC50: 720 nM
[6]; pH 6.5, 10 μM inhibitor, read-out: Inhibition (%) of HsaGST A3-3
  inhibition at 10 µM: 88%

## OC[C@H]1O[C@H]([S-])[C@H](O)[C@@H](O)[C@@H]1O.[Au+] [Aurothioglucose]
[1]; [7]
  Inhibition (%) of EcaGST A3-3: 78 ± 28%
[1]; 1 mM CDNB, 1 mM GSH
  IC50: 850 ± 120 nM
[2]; 1 mM GSH
  IC50 EcaGST A3-3, substrate Δ^5-AD: Anomalous curve
[3]
  Inhibition (%) of HsaGST P1-1: < 4%
[4]
  Inhibition (%) of HsaGST S1-1: 24%
[5]; 10 μM inhibitor
  Inhibition (%) of HsaGST M2-2: 85%
[5]
  IC50: 12000 nM
[6]; 10 μM inhibitor
  Inhibition (%) of HsaGST A3-3: 96%
[6]
  IC50: 910 nM

## O=C(Nc1ccc(C(=O)O)c(O)c1)c1ccccc1 [Benzoylpas]
[5]
  IC50: 2500 nM

## O=[N+]([O-])c1ccc(Cl)c([N+](=O)[O-])c1 [CDNB, 1-chloro-2,4-dinitrobenzene]
[1]; read-out: Km of substrate CDNB with EcaGST A3-3, 1 mM GSH, fitted with and without ethacrynic acid
  Km: 1260 ± 82 µM

## CCCCCCCCCCCCCCCC(=O)OC[C@@H](NC(=O)C(Cl)Cl)[C@H](O)c1ccc([N+](=O)[O-])cc1 [Chloramphenicol palmitate]
[1]; [7]
  inhibition at 10 µM: 40 ± 1%

## CC[C@H]1OC(=O)[C@H](C)[C@@H](O[C@H]2C[C@@](C)(OC)[C@@H](O)[C@H](C)O2)[C@H](C)[C@@H](O[C@@H]2O[C@H](C)C[C@H](N(C)C)[C@H]2O)[C@](C)(OC)C[C@@H](C)C(=O)[C@H](C)[C@@H](O)[C@]1(C)O [Clarithromycin]
[1]; [7]
  inhibition at 10 µM: 36 ± 7%

## Oc1c(I)cc(Cl)c2cccnc12 [Clioquinol]
[1]; [7]
  inhibition at 10 µM: 64 ± 21%

## CC(C)/N=c1\cc2n(-c3ccc(Cl)cc3)c3ccccc3nc-2cc1Nc1ccc(Cl)cc1 [Clofazimine]
[1]; [7]
  inhibition at 10 µM: 52 ± 14%

## C[C@]12CC[C@@H]3c4ccc(OS(=O)(=O)O)cc4CC[C@H]3[C@@H]1CCC2=O [Estropipate]
[1]; [7]
  inhibition at 10 µM: 37 ± 23%

## C=C1C[C@@H]2[C@H](CC[C@]3(C)C(=O)CC[C@@H]23)[C@@]2(C)C=CC(=O)C=C12 [Exemestane]
[1]; [7]
  inhibition at 10 µM: 41 ± 12%

## CC(C)n1c(/C=C/C(O)CC(O)CC(=O)O)c(-c2ccc(F)cc2)c2ccccc21 (stereo not shown) [Fluvastatin sodium]
[1]; [7]
  inhibition at 10 µM: 31 ± 24%

## OCCOCCN1CCN(C(c2ccccc2)c2ccc(Cl)cc2)CC1 (stereo not shown) [Hydroxyzine pamoate]
[1]; [7]
  inhibition at 10 µM: ≤ 30%
[5]
  IC50: 760 nM

Source: article PMC6428247, “Potent inhibitors of equine steroid isomerase EcaGST A3-3” (PLoS ONE, 2019)
